Format in all cases: cell-based
Test [1] concerns synovial sarcoma cell lines (SYO1, Yamato, HS-SY-II, and ASKA). As to the kind of experiment: Growth of synovial sarcoma cell lines (IncuCyte confluency, crystal violet, colony imaging), Example 3. The note with it: 1 μM or indicated doses, FIGS. 5, 6, 7. As to the method:
(§1) Procedures: Cells were treated with DMSO or the BRD9 degrader, Compound 1, at indicated concentrations, and proliferation was monitored from day 7 to day 14 by measuring confluency over time using an IncuCyte live cell analysis system (FIG. 5). Growth medium and compounds were refreshed every 3-4 days.
(§2) Cells were seeded into 12-well plates and treated with DMSO, 1 μM BRD9 inhibitor, Compound 2 (also known as BI-7273, see Martin et al, J Med Chem. 59(10):4462-4475 (2016); see structure of Compound 2 below), or 1 μM BRD9 degrader, Compound 1.
(§3) The number of cells was optimized for each cell line. Growth medium and compounds were refreshed every 3-5 days. SYO1, Yamato, A549, 293T and HS-SY-II cells were fixed and stained at day 11. ASKA cells were fixed and stained at day 23. Staining was done by incubation with crystal violet solution (0.5 g Crystal Violet, 27 ml 37% Formaldehyde, 100 mL 10×PBS, 10 mL Methanol, 863 dH2O to 1 L) for 30 min followed by 3× washes with water and drying the plates for at least 24 h at room temperature. Subsequently plates were scanned on an Odyssey CLx Imaging system (FIG. 6).
(§4) Cells were seeded into 96-well ultra low cluster plate (Costar, #7007) in 200 μL complete media and treated at day 2 with DMSO, Staurosporin, or BRD9 degarder, Compound 1, at indicated doses (FIG. 7). Media and compounds were changed every 5 d and cell colonies were imaged at day 14.

The test system of test [2] is non-synovial control cancer cell lines (293T, A549, G401). The test can be described thus: Growth of non-synovial control cancer cell lines, Example 3. The note with it: FIGS. 5, 6, 7. As to the method: as §1, §2, §3, §4
Test [3] has as its system synovial sarcoma cell lines (SYO1, HS-SY-II, and ASKA). The test can be described thus: Crystal violet growth assay in synovial sarcoma cell lines, Example 4. The note with it: for inhibition of the growth of the cells: SYO1, HS-SY-II, ASKA, treated daily, day 14, FIG. 8. As for the experimental part: (§5) Procedure: Cells were seeded into 6-well or 12-well plates and were treated daily with a BRD9 degrader (Compound 1), a bromo-domain BRD9 binder (Compound 2), E3 ligase binder (lenalidomide), DMSO, or staurosporin (positive control for cell killing), at indicated concentrations. The number of cells was optimized for each cell line. Growth media was refreshed every 5 days. By day 14, medium was removed, cells were washed with PBS, and stained using 500 μL of 0.005% (w/v) crystal violet solution in 25% (v/v) methanol for at least 1 hour at room temperature. Subsequently plates were scanned on an Odyssey CLx Imaging system.

Test [4] has as its system non-synovial control cancer cell lines (RD, HCT116, and Calu6). As to the kind of experiment: Crystal violet growth assay in non-synovial control cancer cell lines, Example 4. The note with it: treated daily, day 14, FIG. 9. As to the method:
as §5

Test [5] concerns SYO1 cells. The test can be described thus: Cell cycle analysis (Click-iT Plus EdU Flow Cytometry Assay). The note with it: 200 nM or 1 μM, 8 or 13 days, as compared to DMSO and lenalidomide. As for the experimental part: (§6) Procedure: SYO1 cells were treated for 8 or 13 days with DMSO, a BRD9 degrader (Compound 1) at 200 nM or 1 μM, or an E3 ligase binder (lenalidomide) at 200 nM. Compounds were refreshed every 5 days. Cell cycle analysis was performed using the Click-iT™ Plus EdU Flow Cytometry Assay (Invitrogen). The apoptosis assay was performed using the Annexin V-FITC Apoptosis Detection Kit (Sigma A9210). Assays were performed according to the manufacturer's protocol.
On the technique in general: A flow cytometer gives signals particle by particle.

For test [6], the system named is SYO1 cells. As to the kind of experiment: Apoptosis assay (Annexin V-FITC Apoptosis Detection Kit). The note with it: 200 nM or 1 μM, 8 days, as compared to DMSO controls. As to the method: as §6

Consider `COc1cc(-c2cn(C)c(=O)c3cnccc23)cc(OC)c1CN(C)C` [Compound 2], for which the “inhibition of the growth of the cells” value in test [1] is given as “inhibition of the growth of the cells”; in test [2], “does not result in inhibition of the growth”; in test [3], “inhibition of the growth of the cells”; in test [4], “did not result in inhibition of the growth”.
On to `COc1cc(-c2cn(C)c(=O)c3cnccc23)cc(OC)c1CN(C)CC(=O)NCCOCCOCCNc1cccc2c1C(=O)N(C1CCC(=O)NC1=O)C2=O` (centres unmarked) [Compound 1], for which the “inhibition of the growth of the cells” value in test [1] is given as “inhibition of the growth of the cells”; in test [2], “does not result in inhibition of the growth”; in test [3], “inhibition of the growth of the cells”; in test [4], “did not result in inhibition of the growth”. For the same compound, the “growth inhibition compared with the other treatments” value in test [3] (all synovial cell lines, versus Compound 2 and lenalidomide) is “most significant growth inhibition”. The “numbers of cells in the S-phase of the cell cycle” value in the test on SYO1 cells [5] is “reduced numbers of cells in the S-phase”. The “numbers of early- and late-apoptotic cells” value with SYO1 cells [6] is “increased numbers of early- and late-apoptotic cells”.
